Measurements from patent publication US20160287710A1 (UNIVERSITY OF UTAH RESEARCH FOUNDATION, priority 2013, published 2016).
≈ marks a conversion by molar mass, not a printed value.

Experiment: Solubility of progesterone in glycol chitin solutions (reverse-phase HPLC)
Assay type: physicochemical
Conditions: aqueous with cosolvent or surfactant or cyclodextrin
Method: A mixture of methanol/water (80:20; v/v) was used, as the mobile phase at a flow rate of 1 mL per minute. […] FIG. 1.

In the case of `CC(=O)[C@H]1CC[C@H]2[C@@H]3CCC4=CC(=O)CC[C@]4(C)[C@H]3CC[C@]12C` [Progesterone], the solubility at 24 h (5 wt % glycol chitin solution, 4 °C, thermodynamic from solid) is reported as 148 ± 13.8 µg/mL (≈ 472 µM) and the solubility (in a mixture of PEG-400/water (50:50 v/v)) is reported as ~200 µg/mL (≈ 636 µM).
